According to patent publication US20240325548A1, “DYNAMIC BIOACTIVE SCAFFOLDS AND THERAPEUTIC USES THEREOF AFTER CNS INJURY” (Northwestern University, priority 2021, published 2024):

Legend:
[1] = Diffusion ordered spectroscopy (DOSY), pulse-field gradient NMR; type: physicochemical
Protocol: The diffusion coefficients were measured by pulse-field gradient NMR using the longitudinal eddy-current delay with bipolar pulse pairs pulse sequence with a maximum gradient strength of 53.5 G/cm and 16 values for the gradient strength. The peak intensity I was measured and fit to the Stejskal-Tanner equation: […]
where I0 is the intensity in the absence of the gradient pulse, D is the diffusion coefficient, γ is the proton gyromagnetic ratio, g is the gradient strength, δ is the length of the pulse field gradient pulse (2 ms) and Δ is the diffusion delay (0.1 s).
The […] was calculated from the Stokes-Einstein equation as: […]
where kB is the Boltzmann constant, T is the temperature, and f is the viscosity.
PA materials were mixed (90 mol % of IKVAV PA2+10 mol % FGF2 PAs) and sonicated as described above and then lyophilized. Samples were then dissolved in D2O water and solubilized in 1 equiv. NaOD at a concentration of 6 mM in standard 5 mm NMR tube with 0.25 mM sodium trimethylsilylpropanesulfonate (DSS) as a chemical shift reference and an intensity standard. […] Diffusion coefficients were measured using pulse-field gradient NMR using the stimulated echo pules sequence with a 2 ms gradient pulse and a 100 ms diffusion delay time using a maximum gradient strength of 53 G/cm.

[2] = Negative-stain TEM fiber width; type: physicochemical
Protocol: To prepare the negatively stained TEM specimen, 7 μL of PA sample solution (1 wt % PA prepared in 150 mM NaCl and 3 mM diluted 10 times in MilliQ water) was applied on the shiny side of a glow discharged grid (300 mesh copper with carbon film, Electron Microscopy Sciences), followed by rinsing three times with MilliQ water to remove the excess of salt. The grid was then stained with filtered 2 wt % uranyl acetate aqueous solution and dried in air. TEM imaging was carried out on a JEOL 1230 microscope with a LaB6 filament at 100 kV accelerating voltage, equipped with a Gatan 831 CCD camera. A cold finger was introduced for sample stabilization during imaging.

hNPCs = assay: hNPC attachment, proliferation and phenotype on co-assembled PA coatings (EdU, SOX-2, PAX6); type: cell-based, human
Excerpt: Neural progenitor cells (NPCs) were differentiated from human embryonic stem cells HUES 64 (Harvard University) (see FIG. 2C). In short, 70% confluent stem cell cultures grown in Matrigel (Thermo Fisher) coated plates with mTESR medium (STEMCELL Technologies), were switched to N2B27 medium (50% DMEM: F12, 50% Neurobasal, supplemented with NEAA, Glutamax, N2 and B27; Gibco) containing dual SMAD inhibitors (SB431542, DNSK International and LDN-193189, Tocris) for 12 days to induce the generation of neural progenitors. Neuralization was enhanced by supplementing medium with laminin from day 5 to 12. Next, neural rosettes were dissociated with neural rosette selection reagent (STEMCELL Technologies) to obtain NPCs, which are expanded in N2B27 (Gibco) medium supplemented with bFGF (Millipore). For experimentation in the different PA platforms, NPCs were dissociated with Accutase (Innovative Cell technology), and cultured in the distinct platforms with DMEM: F12+N2+B27 medium with hyclone penicillin-streptomycin (GE Healthcare) and ascorbic acid (0.2 μg/mL; Sigma-Aldrich).
For IKVAV PA treatments, hNPCs were cultured on ornithine coatings (German Glass, Chemglass Life Science) in 6 well and 24 well plates at a density of 500,000 cells/well and 80,000 cells/well respectively. hNPCs were treated with […] of IKVAV PAs ([PA]=6 mM, [KCl]=3 mM, [NaCl]=150 mM) or recombinant laminin protein (10 mg/mL) in solution. IKVAV PA2 and IKVAV PA5 were also mixed with 5 mM CaCl2) at a ratio PA:CaCl2) 6:1 to treat hNPCs. For 2D experiments, hNPCs were cultured on the different IKVAV PAs or laminin coatings in 6 well and 24 well plates at densities mentioned above. For co-assembled experiments, hNPCs were cultured on the different co-assembled PA coatings in 6 well and 24 well plates at a density of 400,000 cells/well and 50,000 cells/well respectively.
hNPCs were fed 4 times a week with DMEM: F12+N2^+B27 medium with hyclone penicillin-streptomycin and ascorbic acid. After 24 h, 72 h 1- or 2-weeks in vitro, cell lysates were harvested or fixed for WB or ICC, respectively. Three replicates per condition and at least three independent experiments were carried out for all conditions investigated.
For the hNPCs proliferation assay, 2 μM of the thymidine analog 5-ethynyl-2′-deoxyuridine (EdU, Thermo Fisher) was incorporated into the culture medium for 24 h. Cells were fixed at the indicated time points in 4% paraformaldehyde (PFA) for 15 min at RT. After fixation, samples were washed in PBS twice and then stained with Click-iT™ EdU Cell Proliferation Kit containing 11 mM CuSO4 (from 50 mM stock) and 1 μg/mL of Alexa Fluor-555 azide (from 0.5 mg/mL, Thermo Fisher) for 30 minutes at RT in the dark. The staining cocktail was then removed, and cells were washed with PBS. Then, hNPCs were counterstained with anti-rabbit SOX-2 antibody following the immunofluorescence protocol described below and 4′, 6-diamidino-2-phenylindole (DAPI, Thermo Fisher) at 5 μg/mL in PBS for 20 min at RT. The cells were then washed with PBS and mounted with Immu-Mount (Fisher Scientific) for imaging.
For immunofluorescence, fixed primary cultures or free-floating tissue sections (40 m Thick) were incubated in blocking buffer containing 0.02% Triton-X (Sigma-Aldrich), 1% NHS (Gibco) and PBS 1× (Gibco). Samples were incubated with primary antibodies over night at 4° C. Alexa-488, Alexa-555 and/or Alexa-647 (1:500, Thermofisher) were used as secondary antibodies. DAPI (1:500, Thermofisher) was used to stain nuclei. […]

Rh ([1]; calculated from Stokes-Einstein equation): 1.4 nm
D ([1]; diffusion coefficient, DOSY): 1.6 ± 0.01 × 10^−10 m^2/s
average fiber width [2]: 10.6±0.1 nm
Substance: C16-A2G2E4GIKVAV [IKVAV PA2]
percentage of proliferating EdU+ and SOX2+ cells (hNPCs): decreased significantly
percentage of neuronal progenitor cells PAX6+ (hNPCs; one week later): increased percentage
